Where two headings read alike, the source gives them in different places.
What was measured:
rat NaCT [1] = molecular target: T1, rat NaCT (Rattus norvegicus, UniProt Q8CJ44); experiment: Uptake via rat NaCT expressed in HRPE cells; type: cell-based
T1 sequence (Q8CJ44 1-572): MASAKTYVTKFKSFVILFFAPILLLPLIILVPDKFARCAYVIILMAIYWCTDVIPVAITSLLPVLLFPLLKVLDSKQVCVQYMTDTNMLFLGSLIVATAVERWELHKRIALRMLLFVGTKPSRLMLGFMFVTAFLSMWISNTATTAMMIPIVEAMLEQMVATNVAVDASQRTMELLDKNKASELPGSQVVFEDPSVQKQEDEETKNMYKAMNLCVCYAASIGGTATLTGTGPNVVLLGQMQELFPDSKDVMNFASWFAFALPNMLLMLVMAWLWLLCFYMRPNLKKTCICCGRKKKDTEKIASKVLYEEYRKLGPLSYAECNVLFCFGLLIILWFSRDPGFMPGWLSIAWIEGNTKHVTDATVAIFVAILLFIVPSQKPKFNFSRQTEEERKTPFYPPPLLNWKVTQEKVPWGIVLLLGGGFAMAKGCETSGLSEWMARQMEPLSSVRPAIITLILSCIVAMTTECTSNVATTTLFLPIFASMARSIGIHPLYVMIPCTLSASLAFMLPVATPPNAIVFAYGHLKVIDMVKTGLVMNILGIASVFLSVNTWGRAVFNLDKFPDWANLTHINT

NaCT in HepG2 cells = molecular target: T2, NaCT in HepG2 cells (Homo sapiens, UniProt Q86YT5); experiment: Citrate uptake in HepG2 cells (constitutively expressed NaCT); type: cell-based
T2 construct: the effect of Li^+ on constitutively expressed NaCT in human liver cells was studied; host or cells: HepG2
T2 sequence (Q86YT5 whole entry): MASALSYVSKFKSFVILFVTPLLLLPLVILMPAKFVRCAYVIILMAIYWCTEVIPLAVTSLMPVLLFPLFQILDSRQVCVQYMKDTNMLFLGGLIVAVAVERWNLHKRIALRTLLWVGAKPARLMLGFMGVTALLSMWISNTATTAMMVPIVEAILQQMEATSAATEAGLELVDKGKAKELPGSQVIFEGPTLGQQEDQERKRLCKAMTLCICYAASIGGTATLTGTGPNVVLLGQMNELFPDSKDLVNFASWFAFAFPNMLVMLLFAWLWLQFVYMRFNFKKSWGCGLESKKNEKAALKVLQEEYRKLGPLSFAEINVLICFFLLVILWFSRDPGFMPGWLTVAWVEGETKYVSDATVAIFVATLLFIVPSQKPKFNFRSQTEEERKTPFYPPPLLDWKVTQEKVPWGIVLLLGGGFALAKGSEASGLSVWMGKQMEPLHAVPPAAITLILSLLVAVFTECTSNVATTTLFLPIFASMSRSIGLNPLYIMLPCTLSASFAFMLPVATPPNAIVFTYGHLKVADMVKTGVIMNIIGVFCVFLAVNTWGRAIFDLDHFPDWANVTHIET
Protocol: Uptake measurement in human liver cell lines. The human liver cell lines (HepG2 and Huh-7) were cultured to confluency in 24-well culture plates using appropriate culture medium. The HepG2 cell line was obtained from American Type Culture Collection (Manasses, Va.). The Huh-7 cell line (Bode et al., (2002) Am. J. Physiol. 283, G1062-G1073) was provided by Dr. Barrie P. Bode (St. Louis University, St. Louis, Mo.). Uptake measurements in monolayer cultures of these cells were measured as described above for the heterologously expressed NaCTs.

[2] = cited from earlier work
zebrafish NaCT = zebrafish NaCT (Danio rerio, UniProt A0A2R8QQN0, K78Q); experiment: Citrate uptake via zebrafish NaCT expressed in HRPE cells; type: cell-based; details: for Citrate uptake, zfNaCT, percent of corresponding control: 30 min
zebrafish NaCT, sequence (A0A2R8QQN0 2-582 K78Q): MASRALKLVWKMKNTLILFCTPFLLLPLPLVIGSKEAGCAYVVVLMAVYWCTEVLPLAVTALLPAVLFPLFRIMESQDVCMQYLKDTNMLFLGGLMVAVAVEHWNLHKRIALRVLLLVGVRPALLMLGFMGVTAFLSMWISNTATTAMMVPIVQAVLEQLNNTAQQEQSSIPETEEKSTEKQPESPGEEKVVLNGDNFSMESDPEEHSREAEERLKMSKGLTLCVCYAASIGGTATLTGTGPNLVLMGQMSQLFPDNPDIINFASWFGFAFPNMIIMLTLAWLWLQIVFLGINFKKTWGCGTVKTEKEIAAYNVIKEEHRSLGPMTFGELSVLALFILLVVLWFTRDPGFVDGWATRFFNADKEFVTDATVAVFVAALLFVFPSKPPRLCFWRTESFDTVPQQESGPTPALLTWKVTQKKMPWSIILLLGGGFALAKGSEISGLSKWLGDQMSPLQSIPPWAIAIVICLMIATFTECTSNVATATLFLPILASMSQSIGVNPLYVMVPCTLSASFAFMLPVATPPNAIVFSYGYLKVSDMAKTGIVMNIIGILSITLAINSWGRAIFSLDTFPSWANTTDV

human NaCT = human NaCT (Homo sapiens, UniProt Q86YT5); experiment: Uptake via human NaCT expressed in HRPE cells; type: cell-based
human NaCT, sequence (Q86YT5 whole entry): as the sequence (Q86YT5 whole entry) above

mouse NaCT = molecular target: T3, mouse NaCT (Mus musculus, UniProt Q67BT3); experiment: Transport via mouse NaCT expressed in HRPE cells; type: cell-based
T3 sequence (Q67BT3 1-572): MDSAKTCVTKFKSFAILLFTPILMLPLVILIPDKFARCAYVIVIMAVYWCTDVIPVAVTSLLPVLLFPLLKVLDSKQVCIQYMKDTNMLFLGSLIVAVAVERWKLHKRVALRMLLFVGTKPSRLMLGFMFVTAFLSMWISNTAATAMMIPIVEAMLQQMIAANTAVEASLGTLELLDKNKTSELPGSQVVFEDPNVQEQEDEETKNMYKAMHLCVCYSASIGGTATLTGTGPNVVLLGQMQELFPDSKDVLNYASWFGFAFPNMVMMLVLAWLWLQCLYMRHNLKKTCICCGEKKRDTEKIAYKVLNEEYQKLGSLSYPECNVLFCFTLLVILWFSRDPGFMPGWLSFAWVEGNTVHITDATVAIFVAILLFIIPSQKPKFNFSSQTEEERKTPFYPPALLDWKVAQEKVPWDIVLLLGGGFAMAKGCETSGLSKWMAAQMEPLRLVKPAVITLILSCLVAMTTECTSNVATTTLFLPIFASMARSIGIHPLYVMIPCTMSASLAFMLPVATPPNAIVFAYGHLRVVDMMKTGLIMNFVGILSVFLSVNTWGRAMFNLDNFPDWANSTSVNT

ceNaCT = molecular target: T4, ceNaCT (Caenorhabditis elegans, UniProt P32739, I91S/L182M); experiment: Uptake via ceNaCT expressed in HRPE cells
T4 sequence (P32739 1-551 I91S/L182M): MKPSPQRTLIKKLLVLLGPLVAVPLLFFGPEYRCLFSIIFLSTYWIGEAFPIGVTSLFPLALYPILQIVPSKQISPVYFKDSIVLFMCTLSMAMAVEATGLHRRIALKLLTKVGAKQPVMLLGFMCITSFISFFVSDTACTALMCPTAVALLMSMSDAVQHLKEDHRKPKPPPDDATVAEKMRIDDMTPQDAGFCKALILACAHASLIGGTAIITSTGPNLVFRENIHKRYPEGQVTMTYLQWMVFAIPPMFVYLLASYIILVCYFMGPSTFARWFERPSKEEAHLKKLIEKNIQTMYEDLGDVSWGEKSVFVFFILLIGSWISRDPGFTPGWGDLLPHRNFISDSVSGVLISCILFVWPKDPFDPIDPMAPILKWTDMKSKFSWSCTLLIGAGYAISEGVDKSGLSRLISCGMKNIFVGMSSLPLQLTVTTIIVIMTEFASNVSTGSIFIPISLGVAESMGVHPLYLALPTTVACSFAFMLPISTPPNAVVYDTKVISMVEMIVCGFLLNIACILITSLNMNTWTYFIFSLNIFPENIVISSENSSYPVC

rat NaCT [3] = molecular target: T1, rat NaCT; experiment: Rat NaCT in X. laevis oocytes, voltage clamp and charge-to-substrate ratio; type: cell-based
drIndy = drIndy (Drosophila melanogaster, UniProt Q9VVT2); details: for cDNA-specific [^3H] succinate uptake: pH 7.5
drIndy, sequence (Q9VVT2 19-590): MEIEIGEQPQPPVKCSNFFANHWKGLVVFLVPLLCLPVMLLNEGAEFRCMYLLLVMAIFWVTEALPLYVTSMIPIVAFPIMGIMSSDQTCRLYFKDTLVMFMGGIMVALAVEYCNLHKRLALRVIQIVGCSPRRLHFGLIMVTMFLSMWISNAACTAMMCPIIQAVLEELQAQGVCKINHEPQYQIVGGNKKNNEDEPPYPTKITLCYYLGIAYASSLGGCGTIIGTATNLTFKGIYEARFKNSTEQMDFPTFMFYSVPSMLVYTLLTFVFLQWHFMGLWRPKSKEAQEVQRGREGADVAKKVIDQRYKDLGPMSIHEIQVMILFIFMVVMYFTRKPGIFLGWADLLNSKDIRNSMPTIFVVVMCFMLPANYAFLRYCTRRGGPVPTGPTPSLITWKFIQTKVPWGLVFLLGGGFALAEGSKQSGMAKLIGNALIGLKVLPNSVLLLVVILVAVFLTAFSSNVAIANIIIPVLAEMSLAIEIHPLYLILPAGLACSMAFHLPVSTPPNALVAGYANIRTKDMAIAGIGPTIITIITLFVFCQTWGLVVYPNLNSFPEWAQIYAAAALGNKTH

[4] = substrate: O=C(O)CC(O)(CC(=O)O)C(=O)O; experiment: cells, lysate or membranes; details: other: pH 7.5, 37.0 °C
[5] = Li+ 2 mM, valproate 0.6 μM, carbamazepine 50 μM

For `NC(=O)N1c2ccccc2C=Cc2ccccc21` [Carbamazepine, carbamazepine], the “Citrate uptake, rNaCT” value (rat NaCT [1]; [5]) was 133.5 ± 0.7 pmol/10^6 cells/min, the “Citrate uptake, rNaCT, percent of corresponding control” value (rat NaCT [1]; [5]) was 90% and the “Citrate uptake, HepG2 cells” value (NaCT in HepG2 cells; [5]) was 10.0 ± 0.2 pmol/min/mg protein. For the same molecule, the “Citrate uptake, HepG2 cells, percent of corresponding control” value (NaCT in HepG2 cells; [5]) was 106%, the “Therapeutic plasma levels in humans” value ([2]; human, in vivo) was 20 to 50 µM and the “Citrate uptake, zfNaCT” value (zebrafish NaCT) was 441.0 ± 2.7 (91) pmol/10^6 cells/min. The “Citrate uptake, zfNaCT, percent of corresponding control” value (zebrafish NaCT; hrpe cells) was 441.0 ± 2.7 (91) percent, the “Citrate uptake, hNaCT” value (human NaCT; [5]) was 54.1 ± 2.6 pmol/10^6 cells/min and the “Citrate uptake, hNaCT, percent of corresponding control” value (human NaCT; [5]) was 105%. The “Citrate uptake, mNaCT” value (mouse NaCT; [5]) was 43.7 ± 2.0 pmol/10^6 cells/min, the “Citrate uptake, mNaCT, percent of corresponding control” value (mouse NaCT; [5]) was 103% and the “Citrate uptake, ceNaCT” value (ceNaCT; [5]) was 45.1 ± 1.5 pmol/10^6 cells/min. The “Citrate uptake, ceNaCT, percent of corresponding control” value (ceNaCT; [5]) was 104%.

With `CC(O)C(=O)O` (centres unmarked) [Lactate, lactate] the “Substrate-induced currents” value (rat NaCT [3]) was “no or little currents”, the “[^14C]Citrate uptake (cDNA-specific)” value (rat NaCT [1]) was 89.6 ± 2.0 Pmol/10^6 cells/min and the “[^14C]Citrate uptake, %” value (rat NaCT [1]) was 83%. The “[^14C]-Citrate Uptake (cDNA-specific)” value (human NaCT) was 61.2 ± 6.0 pmol/10^6 cells/min, the “[^14C]-Citrate Uptake, %” value (human NaCT) was 128% and the “[^3H]-Succinate transport (NaCT-specific)” value (mouse NaCT) was 0.162 ± 0.008 pmol/10^6 cells/min. The “[^3H]-Succinate transport, %” value (mouse NaCT) was 111%, the “[^14C]-Citrate transport (NaCT-specific)” value (mouse NaCT) was 29.8 ± 3.4 pmol/10^6 cells/min and the “[^14C]-Citrate transport, %” value (mouse NaCT) was 78%. For the same molecule, the “% Control of cDNA-specific [^3H]succinate uptake” value (drIndy) was 77%, the “cDNA-specific [^3H] succinate uptake” value (drIndy) was 111.2 ± 3.2 fmol/106 cells per min and the “Competition with [^14C]citrate for ceNaCT-mediated uptake” value (from here on “Competition with [^14C]citrate”) (ceNaCT) was “only a minimal inhibition”.

For `O=C(O)/C=C\C(=O)O` [Maleate], the “[^14C]Citrate uptake (cDNA-specific)” value (rat NaCT [1]) was 78.8 ± 1.5 Pmol/10^6 cells/min, the “[^14C]Citrate uptake, %” value (rat NaCT [1]) was 73% and the “[^14C]-Citrate Uptake (cDNA-specific)” value (human NaCT) was 58.0 ± 6.7 pmol/10^6 cells/min. For the same molecule, the “[^14C]-Citrate Uptake, %” value (human NaCT) was 121%, the “[^3H]-Succinate transport (NaCT-specific)” value (mouse NaCT) was 0.165 ± 0.014 pmol/10^6 cells/min and the “[^3H]-Succinate transport, %” value (mouse NaCT) was 113%. The “[^14C]-Citrate transport (NaCT-specific)” value (mouse NaCT) was 31.2 ± 2.5 pmol/10^6 cells/min, the “[^14C]-Citrate transport, %” value (mouse NaCT) was 82% and the “% Control of cDNA-specific [^3H]succinate uptake” value (drIndy) was 85%. For the same molecule, the “cDNA-specific [^3H] succinate uptake” value (drIndy) was 123.1 ± 7.6 fmol/106 cells per min and the “Competition with [^14C]citrate” value (ceNaCT) was “failed to compete with citrate”.

For `CCCC(CCC)C(=O)O` [Valproate, valproate], the “Citrate uptake, rNaCT, percent of corresponding control” value (rat NaCT [1]; [5]) is given as 96%, the “Citrate uptake, HepG2 cells, percent of corresponding control” value (NaCT in HepG2 cells; [5]) is given as 105% and the “Plasma concentrations / therapeutic plasma levels in humans” value ([2]; patients under treatment) is given as 300 to 600 µM. For the same molecule, the “Citrate uptake, zfNaCT, percent of corresponding control” value (zebrafish NaCT; [5]) was 93.2%, the “Citrate uptake, hNaCT, percent of corresponding control” value (human NaCT; [5]) was 111% and the “Citrate uptake, mNaCT, percent of corresponding control” value (mouse NaCT; [5]) was 100%. For the same molecule, the “Citrate uptake, ceNaCT, percent of corresponding control” value (ceNaCT; [5]) was 106%.

With `O=C(O)/C=C(/CC(=O)O)C(=O)O` [cis-Aconitate, cis-aconitate] the “Substrate-induced currents as % of citrate-induced currents” value (rat NaCT [3]; substrate 0.5 mM) was “approximately 10%”, the “[^14C]-Citrate Uptake (cDNA-specific)” value (human NaCT; [14C]-citrate 20 μM, unlabeled compound 2.5 mM) was 55.5 ± 3.3 pmol/10^6 cells/min and the “[^14C]-Citrate Uptake, %” value (human NaCT; [14C]-citrate 20 μM, unlabeled compound 2.5 mM, none = 100) was 116%. The “[^3H]-Succinate transport (NaCT-specific)” value (mouse NaCT; [3H]-succinate 0.1 μM, substrate analog 2 mM) was 0.062 ± 0.005 pmol/10^6 cells/min, the “[^3H]-Succinate transport, %” value (mouse NaCT; [3H]-succinate 0.1 μM, substrate analog 2 mM, control = 100) was 43% and the “[^14C]-Citrate transport (NaCT-specific)” value (mouse NaCT; [14C]-citrate 10 μM, substrate analog 2 mM) was 18.1 ± 1.8 pmol/10^6 cells/min. The “[^14C]-Citrate transport, %” value (mouse NaCT; [14C]-citrate 10 μM, substrate analog 2 mM, control = 100) was 47% and the “Competition with [^14C]citrate” value (ceNaCT; competitor 2.5 mM, [14C]citrate 15 μM) was “did not compete with [^14C]citrate as effectively as unlabelled citrate”.

With tunicamycin the “Effect on NaCT activity in HepG2 cells” value (NaCT in HepG2 cells; treatment of HepG2 cells with tunicamycin) was “significant inhibition”.

B1: ceNaCT (Caenorhabditis elegans; I91S/L182M) (protein)
chain: MKPSPQRTLIKKLLVLLGPLVAVPLLFFGPEYRCLFSIIFLSTYWIGEAFPIGVTSLFPLALYPILQIVPSKQISPVYFKDSIVLFMCTLSMAMAVEATGLHRRIALKLLTKVGAKQPVMLLGFMCITSFISFFVSDTACTALMCPTAVALLMSMSDAVQHLKEDHRKPKPPPDDATVAEKMRIDDMTPQDAGFCKALILACAHASLIGGTAIITSTGPNLVFRENIHKRYPEGQVTMTYLQWMVFAIPPMFVYLLASYIILVCYFMGPSTFARWFERPSKEEAHLKKLIEKNIQTMYEDLGDVSWGEKSVFVFFILLIGSWISRDPGFTPGWGDLLPHRNFISDSVSGVLISCILFVWPKDPFDPIDPMAPILKWTDMKSKFSWSCTLLIGAGYAISEGVDKSGLSRLISCGMKNIFVGMSSLPLQLTVTTIIVIMTEFASNVSTGSIFIPISLGVAESMGVHPLYLALPTTVACSFAFMLPISTPPNAVVYDTKVISMVEMIVCGFLLNIACILITSLNMNTWTYFIFSLNIFPENIVISSENSSYPVC
For B1, the Km [4] was 76 ± 14 µM.
